{"source": "patent US20060058274A1", "about": "“Use of an aldosterone receptor antagonist to improve cognitive function” (Pharmacia Corporation, priority 2000, published 2006)", "key": {"male Wistar rats": {"test_system": "male Wistar rats", "settings": "cited from earlier work; for corticosterone-induced increase in behavioral reactivity: pretreatment, intracerebroventricular injection"}, "[1]": {"assay": "Physical stability of solid state forms of eplerenone", "type": "physicochemical", "settings": "temperatures below the enantiotropic transition temperature"}, "mice": {"test_system": "mice", "settings": "cited from earlier work"}, "[2]": {"test_system": "Dahl salt-sensitive (DS) rat", "settings": "low, non-antihypertensive doses, cited from earlier work; for memory function (passive avoidance): aged DS rats on low salt diet"}, "[3]": {"test_system": "patients with HF or hypertension", "assay": "Phase II eplerenone HF and hypertension trials", "type": "in vivo, human", "settings": "25 to 50 mg QD"}, "[4]": {"test_system": "patients with mild-to-moderate hypertension", "assay": "Phase II dose-ranging study of eplerenone in mild-to-moderate hypertension", "type": "in vivo, human", "settings": "for adjusted mean change in ABPM DBP from baseline to final visit / adjusted mean change in ABPM SBP from baseline to final visit: ambulatory blood pressure monitoring; for adjusted mean change in Cuff DBP from baseline to final visit / adjusted mean change in Cuff SBP from baseline to final visit: eight-week study", "description": "The adjusted mean changes (in mmHg) in diastolic blood pressure (DBP) and systolic blood pressure (SBP) from baseline to final visit are shown in Table 1A."}, "glucocorticoid receptors": {"target": "T1, glucocorticoid receptors (Homo sapiens, UniProt P04150)", "T1 sequence (P04150 1-777)": "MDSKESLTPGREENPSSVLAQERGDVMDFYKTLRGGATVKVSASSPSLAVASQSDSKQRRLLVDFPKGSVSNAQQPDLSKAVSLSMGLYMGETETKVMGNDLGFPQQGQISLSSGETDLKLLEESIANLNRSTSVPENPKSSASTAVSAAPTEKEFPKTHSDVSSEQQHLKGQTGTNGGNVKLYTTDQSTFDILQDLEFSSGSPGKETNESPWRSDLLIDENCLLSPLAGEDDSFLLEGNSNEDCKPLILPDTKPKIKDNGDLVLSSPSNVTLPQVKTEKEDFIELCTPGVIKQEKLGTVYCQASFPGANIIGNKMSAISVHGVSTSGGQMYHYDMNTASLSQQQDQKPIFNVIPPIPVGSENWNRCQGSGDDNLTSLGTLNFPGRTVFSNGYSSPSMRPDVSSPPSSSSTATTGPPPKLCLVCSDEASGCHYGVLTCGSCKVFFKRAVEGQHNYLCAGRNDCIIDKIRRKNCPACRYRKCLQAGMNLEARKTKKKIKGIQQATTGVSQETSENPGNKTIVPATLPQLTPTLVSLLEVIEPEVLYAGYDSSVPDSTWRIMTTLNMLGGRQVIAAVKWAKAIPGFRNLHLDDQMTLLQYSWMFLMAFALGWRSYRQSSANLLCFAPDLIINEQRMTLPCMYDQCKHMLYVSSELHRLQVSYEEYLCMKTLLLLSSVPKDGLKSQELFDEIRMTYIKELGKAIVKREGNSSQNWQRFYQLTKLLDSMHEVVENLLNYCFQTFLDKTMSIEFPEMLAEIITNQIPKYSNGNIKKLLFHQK", "settings": "cited from earlier work"}, "[5]": {"target": "T2, central mineralocorticoid receptors (Homo sapiens, UniProt P08235)", "T2 sequence (P08235 1-984)": "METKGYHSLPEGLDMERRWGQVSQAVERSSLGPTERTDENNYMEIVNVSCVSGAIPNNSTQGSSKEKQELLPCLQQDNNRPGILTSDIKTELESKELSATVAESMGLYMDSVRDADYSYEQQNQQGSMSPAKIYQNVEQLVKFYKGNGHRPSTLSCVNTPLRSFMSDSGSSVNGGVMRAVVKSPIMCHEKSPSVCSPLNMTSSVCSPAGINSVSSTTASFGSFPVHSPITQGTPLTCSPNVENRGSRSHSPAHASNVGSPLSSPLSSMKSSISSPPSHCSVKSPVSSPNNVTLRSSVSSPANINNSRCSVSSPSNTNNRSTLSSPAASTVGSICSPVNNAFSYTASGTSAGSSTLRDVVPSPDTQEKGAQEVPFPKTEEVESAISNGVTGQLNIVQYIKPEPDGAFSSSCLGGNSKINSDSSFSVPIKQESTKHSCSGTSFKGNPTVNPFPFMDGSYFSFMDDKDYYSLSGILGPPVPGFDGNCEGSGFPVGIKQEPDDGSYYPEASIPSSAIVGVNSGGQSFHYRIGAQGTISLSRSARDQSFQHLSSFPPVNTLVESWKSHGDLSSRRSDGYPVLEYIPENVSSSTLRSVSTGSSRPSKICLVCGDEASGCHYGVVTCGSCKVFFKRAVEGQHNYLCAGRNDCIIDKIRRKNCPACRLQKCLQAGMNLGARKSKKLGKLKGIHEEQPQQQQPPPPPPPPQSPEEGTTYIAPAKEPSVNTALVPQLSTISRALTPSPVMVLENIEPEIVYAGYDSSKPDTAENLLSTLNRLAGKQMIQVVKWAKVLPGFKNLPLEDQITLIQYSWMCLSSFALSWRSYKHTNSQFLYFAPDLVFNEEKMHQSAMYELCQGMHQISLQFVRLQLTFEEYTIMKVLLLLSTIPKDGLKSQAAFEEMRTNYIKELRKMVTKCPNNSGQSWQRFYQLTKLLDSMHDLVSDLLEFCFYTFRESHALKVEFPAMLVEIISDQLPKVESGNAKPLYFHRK", "settings": "cited from earlier work"}, "[6]": {"assay": "Dissolution rate of unformulated solid state forms of eplerenone", "type": "physicochemical", "settings": "temperatures below the enantiotropic transition temperature"}}, "data": [{"smiles": "CC#C[C@]1(O)CC[C@H]2[C@@H]3CCC4=CC(=O)CCC4=C3[C@@H](c3ccc(N(C)C)cc3)C[C@@]21C", "note": "[RU38486]", "values": [{"measurement": "corticosterone-induced increase in behavioral reactivity", "setting": "male Wistar rats", "result": "not effective"}]}, {"smiles": "COC(=O)[C@@H]1CC2=CC(=O)CC[C@]2(C)[C@@]23O[C@@H]2C[C@@]2(C)[C@@H](CC[C@@]24CCC(=O)O4)[C@H]13", "note": "[Form L, eplerenone]", "values": [{"measurement": "physical stability relative to Form H", "setting": "[1]", "result": "greater physical stability"}]}, {"smiles": "NC(=O)CN1CCCC1=O", "note": "[piracetam]", "values": [{"measurement": "retention performance", "setting": "mice; pretreatment, amnesia induced by electro-shock", "result": "significantly improved"}]}, {"smiles": "Cc1ccnc2c1nc(C1CC1)n2Cc1ccc(-c2ccccc2C(=O)O)cc1", "note": "[Compound E4177]", "values": [{"measurement": "memory function (passive avoidance)", "setting": "[2]", "result": "slightly improved"}, {"measurement": "capillary densities in the CA1 regions", "setting": "[2]", "result": "not influenced"}, {"measurement": "hippocampal CA1 cells", "setting": "[2]", "result": "restored slightly"}]}, {"smiles": "COC(=O)[C@@H]1CC2=CC(=O)CC[C@]2(C)[C@@]23O[C@@H]2C[C@@]2(C)[C@@H](CC[C@@]24CCC(=O)O4)[C@H]13", "note": "[Eplerenone, Pregn-4-ene-7,21-dicarboxylic acid, 9,11-epoxy-17-hydroxy-3-oxo-,γ-lactone, methyl ester, (7α,11α,17β)-]", "values": [{"measurement": "effect on the ACE-inhibited mice", "setting": "mice; mouse, in vivo", "result": "had no effect"}, {"measurement": "retention-sparing effects of piracetam", "setting": "mice; mouse, in vivo", "result": "prevented"}, {"measurement": "diuretic or hemodynamic effect", "setting": "[3]", "result": "neither diuretic nor hemodynamic"}, {"measurement": "plasma BNP levels", "setting": "[3]", "result": "lowered"}, {"measurement": "plasma renin and aldosterone levels", "setting": "[3]", "result": "increased"}, {"measurement": "adjusted mean change in ABPM DBP from baseline to final visit", "setting": "[4]; 25 mg BID", "result": "−4.1", "unit": "mmHg"}, {"measurement": "adjusted mean change in ABPM SBP from baseline to final visit", "setting": "[4]; 25 mg BID", "result": "−7.5", "unit": "mmHg"}, {"measurement": "adjusted mean change in Cuff DBP from baseline to final visit", "setting": "[4]; 25 mg BID", "result": "−4.4", "unit": "mmHg"}, {"measurement": "adjusted mean change in Cuff SBP from baseline to final visit", "setting": "[4]; 25 mg BID", "result": "−8.1", "unit": "mmHg"}, {"measurement": "adjusted mean change in ABPM DBP from baseline to final visit", "setting": "[4]; 50 mg BID", "result": "−6.6", "unit": "mmHg"}, {"measurement": "adjusted mean change in ABPM SBP from baseline to final visit", "setting": "[4]; 50 mg BID", "result": "−11.6", "unit": "mmHg"}, {"measurement": "adjusted mean change in Cuff DBP from baseline to final visit", "setting": "[4]; 50 mg BID", "result": "−7.8", "unit": "mmHg"}, {"measurement": "adjusted mean change in Cuff SBP from baseline to final visit", "setting": "[4]; 50 mg BID", "result": "−11.7", "unit": "mmHg"}, {"measurement": "adjusted mean change in Cuff DBP from baseline to final visit", "setting": "[4]; 50 mg QD", "result": "−4.5", "unit": "mmHg"}, {"measurement": "adjusted mean change in Cuff DBP from baseline to final visit", "setting": "[4]; 100 mg QD", "result": "−4.4", "unit": "mmHg"}, {"measurement": "adjusted mean change in Cuff SBP from baseline to final visit", "setting": "[4]; 100 mg QD", "result": "−7.9", "unit": "mmHg"}, {"measurement": "frequency of transient hyperkalemia (i.e., $5.4 mmol/L)", "setting": "[4]; 200 mg BID and 400 mg QD treatment groups", "result": "increased frequency"}, {"measurement": "adjusted mean change in ABPM DBP from baseline to final visit", "setting": "[4]; 200 mg BID", "result": "−9.0", "unit": "mmHg"}, {"measurement": "adjusted mean change in ABPM SBP from baseline to final visit", "setting": "[4]; 200 mg BID", "result": "−16.1", "unit": "mmHg"}, {"measurement": "adjusted mean change in Cuff DBP from baseline to final visit", "setting": "[4]; 200 mg BID", "result": "−8.9", "unit": "mmHg"}, {"measurement": "adjusted mean change in Cuff SBP from baseline to final visit", "setting": "[4]; 200 mg BID", "result": "−14.8", "unit": "mmHg"}, {"measurement": "adjusted mean change in Cuff DBP from baseline to final visit", "setting": "[4]; 400 mg QD", "result": "−8.7", "unit": "mmHg"}, {"measurement": "adjusted mean change in Cuff SBP from baseline to final visit", "setting": "[4]; 400 mg QD", "result": "−15.0", "unit": "mmHg"}, {"measurement": "plasma renin activity", "setting": "[4]; increasing doses, FIG. 1-1", "result": "increased levels"}, {"measurement": "serum aldosterone", "setting": "[4]; increasing doses, FIG. 1-1", "result": "increased levels"}, {"measurement": "systolic blood pressure", "setting": "[4]; increasing doses, FIG. 1-2", "result": "decreased"}, {"measurement": "diastolic blood pressure", "setting": "[4]; increasing doses, FIG. 1-3", "result": "decreased"}, {"measurement": "tolerability", "setting": "[4]; total daily doses 50, 100 or 400 mg", "result": "well tolerated"}]}, {"smiles": "CCOC(=O)[C@H](CCc1ccccc1)N[C@H]1CCCN2CCC[C@@H](C(=O)O)N2C1=O", "note": "[cilazapril]", "values": [{"measurement": "memory function (passive avoidance)", "setting": "[2]", "result": "dose-dependently improved"}, {"measurement": "capillary densities in the CA1 regions", "setting": "[2]", "result": "significant increases"}, {"measurement": "hippocampal CA1 cells", "setting": "[2]", "result": "significant increases"}]}, {"smiles": "CCC[C@@H]1CC2=CC(=O)CC[C@]2(C)[C@H]2CC[C@@]3(C)[C@@H](CC[C@@]3(O)CCC(=O)[O-])[C@H]12.[K+]", "note": "[RU28318]", "values": [{"measurement": "corticosterone-induced increase in behavioral reactivity", "setting": "male Wistar rats", "result": "prevented"}]}, {"smiles": "C[C@]12C[C@H](O)[C@H]3[C@@H](CCC4=CC(=O)CC[C@@]43C)[C@@H]1CC[C@@H]2C(=O)CO", "note": "[Corticosterone]", "values": [{"measurement": "affinity for glucocorticoid receptors relative to mineralocorticoid receptors", "setting": "glucocorticoid receptors", "result": "tenfold lower affinity"}, {"measurement": "affinity for central mineralocorticoid receptors", "setting": "[5]", "result": "high affinity"}, {"measurement": "adrenalectomy-increased behavioral reactivity towards the object", "setting": "male Wistar rats; 50 micrograms/kg s.c.", "result": "blocked"}]}, {"smiles": "COC(=O)[C@@H]1CC2=CC(=O)CC[C@]2(C)[C@@]23O[C@@H]2C[C@@]2(C)[C@@H](CC[C@@]24CCC(=O)O4)[C@H]13", "note": "[Form H, eplerenone]", "values": [{"measurement": "dissolution rate, higher than unformulated Form L", "setting": "[6]", "result": "approximately 30%"}]}]}
